The record followed here is patent publication US8088822B2, “Use of fenretinide or bioactive derivatives thereof and pharmaceutical compositions comprising the same” (priority 2008, dated 2012).

One test deals with MKN45. The experiment in a line: Apoptosis in gastric tumor cell line MKN45 (Rh123/PI, FACS). As to conditions: MKN45, 48 hours; 4 μM fenretinide, 5 μM Tet, alone or co-treatment. The test is classed as cell-based. Here is the method:
Loss of MTP was evaluated through rhodamine 123 (Rh123) and propidium iodide (PI) staining. 2×10^5 cells were washed by PBS and incubated with 1 μg/ml Rh123 at 37° C. for 30 min. After washed by PBS, 10 μl PI was added to cells for 15 min at room temperature in the dark. Fluorescence emission at 530 nm (representing R123 retention as a function of MTP) was measured with flow cytometry.
Fenretinide induces intracellular ROS and ER stress to activate series of molecular events including apoptotic pathway and such anti-apoptotic pathways as NF-κB cascade. NF-κB can mediate the progression of inflammation-related cancer. […] Unlike fenretinide, Tet is the well-known anti-cancer and anti-inflammation drugs via inhibiting the activity of NF-κB. For example, Tet, as the main effective component of Stephenia tetrandra S Moore, has bioactivities in reversing MDR (multidrug resistance), blocking calcium ion channel and so on. […] FIGS. 19A and 19B show synergistic induction of apoptosis by fenretinide and Tet, as evaluated by Rh123/PI double stain using FACS. […] Through annexin-V/PI double staining, synergistic apoptosis profiles of fenretinide/tetrandrine co-treated MKN45 and SGC7901 cells were also observed (see FIGS. 19C and 19D).

In another test the test system is CML mononuclear cells. The experiment in a line: Apoptosis of CML mononuclear cells. In kind it is cell-based, human. As to conditions: CML patient specimens. The source says: Fresh bone marrow (BM) cells were obtained from 38 patients with CML and 5 non-leukemic donors, 25 AML, 17 ALL, and 8 normal specimens with informed consent according to the Declaration of Helsinki. Approval was obtained from Institutional Review Board at the School of Medicine in Shanghai Jiao Tong University. BM mononuclear cells were isolated by Ficoll density gradient centrifugation (Shanghai Second Reagent Factory, Shanghai, China). CD34^+ Cell were selected using EasySep® Human CD34 Positive Selection kit (Stem Cell Technologies, Vancouver, BC, Canada) according to the manufacturer's instructions. The purity of CD34 cells ranged between 92 and 98% in all samples detennined by flow cytometry. The CD34^+ cells were cultured in a serum-free medium (StemPro 34; Gibco BRL, Gaithersburg, Md.) supplemented with growth factors (PeproTech, London, United Kingdom) (20). The growth factors consisted of GM-CSF (200 pg/mL), G-CSF (1 ng/mL); SCF (200 pg/mL); LIF (50 pg/mL), MIP-1α (200 pg/mL) and IL-6 (1 ng/mL).
Primitive AML and CML subpopulations (CD34^+ cells) were identified using CD34-PE in combination with CD38-APC, and followed by double-labeling with 7AAD and Annexin V antibodies for apoptosis assessment. […] Subsequently, the samples were incubated at room temperature for 15 minutes and analyzed by flow cytometry. […]

The subject of the next test is XBP-1. The experiment in a line: RT-PCR of ER stress marker XBP-1 splicing in K562 cells. In kind it is cell-based. As to conditions: whole time courses. The source says: Real-time quantitative RT-PCR was preformed on ABI7900 thermocycler detection system using SYBR Green I (Applied Biosystems, Foster City, Calif.).
Despite of tremendous efforts (Oridate et al., 1997), mechanisms underlying fenretinide-induced apoptosis are far from clear. In particular, knowledge in terms of how oxidative stress is converted into downstream activities in fenretinide-treated cancer cells is limited. We performed a comprehensive analysis of fenretinide-induced apoptosis in leukemia cell lines through microarray technology integrated robust data mining tool, and techniques of molecular biology. Transcriptome analysis of fenretinide-induced apoptosis in NB4 cells highlighted numerous stress-responsive events at the temporal-spatial level, typifying a process of oxidative stress-mediated apoptosis. Among these prominent events were genes involved in transcriptional regulation, ribosome machinery, oxidative stress, endoplasmic reticulum stress/unfolded protein response (UPR), ubiquitin-proteasome system and apoptosis (FIG. 7A). […] Recently, data have shown that fenretinide may perturb cellular homeostasis and induced ER stress, which may eventually contribute to apoptosis. ER stress is cellular defense mechanism responding to various stimuli including oxidative stressors. […]

In another test the test system is U937. The experiment in a line: Apoptosis in AML cell line U937. The settings on record: U937, within 48 hours, alone or combined. The test is classed as cell-based. The procedure: 2×10^5 cultured cells were used for evaluating apoptosis using an ApoAlert Annexin V-FITC Apoptosis Kit (BD Biosciences). Cells were washed once by PBS, resuspended in 200 μl Annexin-V binding buffer, and then stained with Annexin V-FITC 5 μl, PI 10 μl for 15 min at room temperature in the dark. Cells were subsequently analyzed by flow cytometry.
There are two observations that drive us in further exploring alternative therapeutic combinations. As illustrated in Example 6, proteasome inhibitors can potentate fenretinide-induced apoptosis in leukemia. […] The apoptosis rates were quite low when treated alone within 48 hours (nearly 5%), and the number doubled when treated by fenretinide and MG132.

Regarding `CC1=C(/C=C/C(C)=C/C=C/C(C)=C/C(=O)Nc2ccc(O)cc2)C(C)(C)CCC1` [fenretinide, N-(4-hydroxyphenyl)retinamide], the apoptosis in the test on MKN45 was determined as 6.2%. In addition, the “apoptosis in mononuclear cells” value in the test on CML mononuclear cells is “little apoptosis”. Moreover, the “splicing of the XBP-1 gene” value in the test with XBP-1 is given as “observable”. Moreover, the apoptosis rate in the test with U937 is roughly 5%.
